Measurements taken from paper PMC3703823 (Clinical cancer research : an official journal of the …, 2011).
Values after ≈ are worked out from the molar mass of the structure shown.

Assays:
AAG = conditions: cited from earlier work
[1] = across animal species; cited from earlier work
In vitro solubility = format: physicochemical
[2] = system: alpha-1-acid glycoprotein (AAG); assay: SPR-based biosensor; format: binding; conditions: human
human hepatocytes = conditions: in vitro; cited from earlier work
clinical = conditions: human, plasma, po

## CN[C@@H]1C[C@H]2O[C@@](C)([C@@H]1OC)n1c3ccccc3c3c4c(c5c6ccccc6n2c5c31)C(=O)N[C@H]4O [UCN-01]
AAG
  KD for AAG (corresponding to reported KA): 0.00125 µM

## CS(=O)(=O)c1ccc(C(=O)Nc2ccc(Cl)c(-c3ccccn3)c2)c(Cl)c1 [GDC-0449, 2-chloro-N-[4-chloro-3-(pyridin-2-yl)phenyl]-4-[methylsulfonyl]benzamide]
[1]
  Oral bioavailability: good
In vitro solubility; pH 0.1
  solubility: 990 µg/mL (≈ 2350 µM)
In vitro solubility; pH 6.5
  solubility: 0.1 µg/mL (≈ 0.237 µM)
[2]
  Kd: 13 µM
Human hepatocytes
  Compound remaining intact following coincubations with human hepatocytes: ~100%
clinical
  half-life: > 168 h
clinical; 150 mg
  AUC(0-t): 322 ± 185 µM·h
  Cmax: 3.58 ± 1.34 µM
clinical; 270 mg
  AUC(0-t): 839 ± 458 µM·h
  Cmax: 6.34 ± 3.4 µM
clinical; 540 mg
  AUC(0-t): 1010 µM·h
  Cmax: 6.81 ± 2.69 µM
